We go through four compounds from US10414797B2, “Gelatinase inhibitors and use thereof” (Iproteos S.L, priority 2015, dated 2019).

Where a SMILES comes first, the peptide text is derived from it. [ ]: non-standard residue; d: D form. The star is where a group is joined. ξ: configuration not given here. NMeIle(3ξ) = CCC(C)[C@H](NC)C(=O)O; NMeQ = CN[C@@H](CCC(N)=O)C(=O)O; Ile(3ξ) = CCC(C)[C@H](N)C(=O)O; Hexanoyl = CCCCCC(=O)*; NHOH = ON*

The target in one assay is MMP-9. The assay is described as follows: MMP-9 inhibition assay (fluorimetric, DQ gelatin substrate). The format is biochemical. Particulars: recombinant MMP-9 (Merck-Millipore for examples 1 to 9 and comparative examples; Enzo for examples 10 to 16), DQ gelatin 50 μg/mL, 4 hours at room temperature, pH 7.6. The method, then: (§1) All the experiments were done in 1× reaction buffer, which was obtained from a 10× reaction buffer solution. The content of the 10× reaction buffer was: 50 mL of 0.5 M Tris-HCl, 1.5 M NaCl, 50 mM CaCl2 and 2 mM sodium azide at pH 7.6. To obtain the 1× reaction buffer 4 mL of the 10× reaction buffer were diluted in 36 mL of H2O.
Recombinant MMP-9 expressed was obtained from Merck-Millipore (catalog number PF140-5UG, used in examples 1 to 9 and comparative examples) and Enzo (catalog number-SE360-0010, used in examples 10 to 16). DQ gelatin from pig skin fluorescein conjugated (MMP-9 substrate) was obtained from Life Technologies (catalog number E12055).
Preparation of the MMP-9 for the activity assay: MMP-9 was provided as a stock solution (0.1 mg/mL). The enzyme was diluted in 1× reaction buffer to a final concentration of 5 μg/mL.
(§2) Preparation of the DQ gelatin (substrate) solution for the activity assay: the solid form of the substrate was dissolved in water in order to obtain a stock solution of 1 mg/mL.
(§3) Procedure: The enzymatic assays were performed in 96-well microtiter plate, which allowed simultaneous monitoring of multiple reactions. For each reaction, 84.6 μL of 1× reaction buffer (pH 7.6), 3.4 μL of MMP-9 (final concentration 85 ng/mL) and 2 μL of the corresponding new compound were added to each well. A stock solution of new compound was prepared in DMSO (100 mM), and dilutions were prepared from this stock solution with DMSO. Finally, to the mixture contained in each well 10 μL of the substrate were added (final concentration 50 μg/mL). The reaction was incubated for 4 hours at room temperature in an orbital shaker (100 rpm).
(§4) The inhibitory activity of the new compound was measured fluorimetrically. The excitation and emission wavelengths were 483 and 525 nm, respectively.
(§5) Inhibitory activity at several concentration points (ranging from 100 pM to 200 μM MMP) were measured for each compound. The inhibitory activity on MMP-2 and MMP-9 was calculated according to eq 1. For each new compound, the fluorescence in the presence (a) and in the absence (b) of the corresponding MMP was measured. The maximum fluorescence (0% inhibitory activity) was obtained from a sample of the corresponding MMP in the absence of inhibitory compounds. To estimate the inhibitory potency of the novel compounds, activities were plotted against the log concentration of the compound, adjusting to a sigmoid curve using GraphPad Prism software, and the IC50 value, defined as the concentration of compound required to inhibit 50% of the corresponding MMP activity, was determined from resulting curve.
(§6) a corresponds to fluorescence intensity in the presence of substrate+test compound+MMP
(§7) b corresponds to the fluorescence intensity in the presence of substrate+tested compound
(§8) c corresponds to the fluorescence intensity in the presence of substrate+MMP
(§9) d corresponds to the fluorescence intensity of the presence of substrate

A further assay deals with MMP-2 (Homo sapiens (Human), UniProt P08253). The assay is described as follows: MMP-2 inhibition assay (fluorimetric, DQ gelatin substrate). It counts as biochemical. The following applies: recombinant MMP-2 (CHO cells) 85 ng/mL, DQ gelatin 50 μg/mL, 2 hours at room temperature, pH 7.6. The protocol: as §1
Recombinant MMP-2 expressed in Chinese hamster ovary (CHO) cells was obtained from Merck-Millipore (catalog number PF023-5UG). DQ gelatin from pig skin fluorescein conjugated (MMP-2 substrate) was obtained from Life Technologies (catalog number E12055).
Preparation of the MMP-2 for the activity assay: MMP-2 was provided as a stock solution (0.1 mg/mL). The enzyme was diluted in 1× reaction buffer to a final concentration of 5 μg/mL.
as §2
as §3, with “86.3” for “84.6”, “1.7” for “3.4”, “MMP-2” for “MMP-9”, “2” for “4”
as §4, §5, §6, §7, §8, §9

MMP-2, sequence (P08253 110-660): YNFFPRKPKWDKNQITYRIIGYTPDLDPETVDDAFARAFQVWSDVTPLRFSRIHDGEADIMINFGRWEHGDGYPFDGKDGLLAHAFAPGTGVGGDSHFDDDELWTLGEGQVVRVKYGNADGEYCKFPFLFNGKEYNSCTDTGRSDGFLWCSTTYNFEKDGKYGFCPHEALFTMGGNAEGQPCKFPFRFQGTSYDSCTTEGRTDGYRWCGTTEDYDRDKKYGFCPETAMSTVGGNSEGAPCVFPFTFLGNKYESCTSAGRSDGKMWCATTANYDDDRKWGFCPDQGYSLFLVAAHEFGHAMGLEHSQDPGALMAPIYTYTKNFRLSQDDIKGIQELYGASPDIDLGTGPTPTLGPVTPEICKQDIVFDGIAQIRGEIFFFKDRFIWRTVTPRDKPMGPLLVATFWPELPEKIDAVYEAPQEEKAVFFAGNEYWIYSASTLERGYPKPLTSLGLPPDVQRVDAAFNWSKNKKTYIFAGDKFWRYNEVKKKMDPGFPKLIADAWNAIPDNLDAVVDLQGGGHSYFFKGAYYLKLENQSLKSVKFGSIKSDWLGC
MMP-9, sequence (P14780 107-707 limits assumed): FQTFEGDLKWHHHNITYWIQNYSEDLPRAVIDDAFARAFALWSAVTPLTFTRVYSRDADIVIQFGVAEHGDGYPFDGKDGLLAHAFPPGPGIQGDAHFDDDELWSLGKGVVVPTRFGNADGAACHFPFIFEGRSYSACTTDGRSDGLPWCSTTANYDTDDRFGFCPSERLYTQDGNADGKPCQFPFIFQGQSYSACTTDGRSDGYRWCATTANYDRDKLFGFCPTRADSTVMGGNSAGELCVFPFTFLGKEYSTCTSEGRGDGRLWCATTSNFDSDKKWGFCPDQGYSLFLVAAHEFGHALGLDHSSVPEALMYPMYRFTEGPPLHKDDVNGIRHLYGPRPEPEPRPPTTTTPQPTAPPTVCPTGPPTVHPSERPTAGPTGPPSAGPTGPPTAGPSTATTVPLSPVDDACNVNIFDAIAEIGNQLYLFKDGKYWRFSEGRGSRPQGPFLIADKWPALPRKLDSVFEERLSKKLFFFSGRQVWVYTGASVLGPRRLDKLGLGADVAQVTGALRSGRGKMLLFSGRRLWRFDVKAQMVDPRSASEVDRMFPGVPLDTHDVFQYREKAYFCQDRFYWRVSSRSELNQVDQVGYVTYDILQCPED

As to `CCCCCC(=O)N1CCC[C@H]1C(=O)N(C)[C@@H](CCC(N)=O)C(=O)N[C@@H](Cc1c[nH]c2ccccc12)C(=O)NO` [Example C23, (2S)-2-[[(SS)-1-hexanoylpyrrolidine-2-carbonyl)-methyl-amino]-N-[(1S)-2-(hydroxyamino)-1-(1H-indol-3-ylmethyl)-2-oxo-ethyl]pentanediamide, reference compound] (Hexanoyl-Pro-[NMeQ]-Trp-{NHOH}), the figures for the IC50 at MMP-9 and on MMP-2 were more than 1000 µM and more than 2000 µM, respectively.
Take `CCC(C)[C@H](NC(=O)[C@@H]1CCCN1C(=O)[C@H](CCC(N)=O)NC(C)=O)C(=O)NO` (stereo partly drawn) [Example C19, (2S)-1-[(2S)-2-acetamido-5-amino-5-oxo-pentanoyl]-N-[(1S)-1-(hydroxycarbamoyl)-2-methyl-butyl]pyrrolidine-2-carboxamide, reference compound] (Ac-Gln-Pro-[Ile(3ξ)]-{NHOH}): the IC50 at MMP-9 and on MMP-2 was more than 2000 µM each time.
In the case of `CCC(C)[C@@H](C(=O)N[C@@H](Cc1c[nH]c2ccccc12)C(=O)NO)N(C)C(=O)[C@@H]1CCCN1C(C)=O` (stereo partly drawn) [Example C21, (2S)-1-acetyl-N-[(1S)-1-[[(1S)-2-(hydroxyamino)-1-(1H-indol-3-ylmethyl)-2-oxo-ethyl]carbamoyl]-2-methyl-butyl]-N-methyl-pyrrolidine-2-carboxamide, reference compound] (Ac-Pro-[NMeIle(3ξ)]-Trp-{NHOH}), the IC50 – broadly, the concentration at which inhibition is half-maximal – on MMP-9 was 16 µM; on MMP-2 it was 110 µM.
On to `CCC(C)[C@H](NC(=O)[C@H](Cc1c[nH]c2ccccc12)NC(=O)[C@H](CCC(N)=O)NC(C)=O)C(=O)NO` (stereo partly drawn) [Example C18, (2 S)-2-acetamido-N-[(1S)-2-[[(1S)-1-(hydroxycarbamoyl)-2-methyl-butyl]amino]-1-(1H-indol-3-ylmethyl)-2-oxo-ethyl]pentanediamide, reference compound] (Ac-Gln-Trp-[Ile(3ξ)]-{NHOH}), for which the IC50 worked out at 240 µM on MMP-9 and 710 µM at MMP-2.
